Holding throughout (assay type): physicochemical
The nature of data set [1]: Solubility in organic solvents and water.
Data set [2] can be described thus: UV-vis absorption spectra. To be noted: 5 M, strong acid TFA/THF mixtures, cationic form. The method, then:
(§1) UV-vis spectra were collected on a SHIMADZU UV-1700 spectrophotometer at RT (room temperature) using a 1 cm or a 0.1 cm quartz cuvette. Emission spectra were collected on a HITACHI F-4500 fluorescence spectrophotometer. To obtain an accurate spectrum, spectrum correction was carried out with rhodamine B concentrated solution and a secondary-standard light source. In surface photometry, a cut filter was utilized to eliminate multiple lights, such as secondary light, due to the effects of light scattering. Fluorescence spectra of all samples were measured with excitation with 365 nm. Average particle size was measured by dynamic light scattering (ELSZ-2, Otsuka Electronics).
What molecular species of ABPX are appropriate for the evaluation of AIEE in solution was examined. In order to examine to find the appropriate ABPX01 species, the absorbance spectra of […] of ABPX01 were measured in acid or alkaline solution. In THF solution and 1% TEA/THF mixture, the spectra had no peaks that were attributable to the neutral lactonoid species ABPX01^0. In the strong acid solutions of the TFA/THF mixtures, the absorbance spectra having two peaks at 490 nm and 540 nm should be attributable to the cationic form of ABPX01^+. ABPX01^+ is a quinonoid form delocalized over the luminophore and is therefore appropriate for the emission analysis.
The emission spectra are shown in (a) and (b) of FIG. 13. […]

Data set [3] is described as follows: Emission spectra, aggregation-induced emission enhancement (AIEE). The protocol:
as §1
In contrast, the emission behavior of rhodamines in aqueous solution was reported to decrease at 10^−4 M and above because of the formation of the H-dimer. The behavior of ABPX01^+ was directly opposite to the concentration quenching of common hydrophobic dyes.
The AIEE characteristics of 500 μM of ABPX01^+ to ABPX04^+ were investigated in various solvents. […] The emission spectrum of 500 μM of ABPX01^+ in THF was nonemissive.
The problem was solved by using the surface photometric method (FIG. 12). Explained below are the respective surface photometric equipment configurations. […] The problem was solved by using the surface photometric method. A sample holder was set at an angle of 30° with respect to the excitation light. However, attention should be paid to the linearity of the emission intensity against the concentration for the accurate evaluation of high-concentration sample solutions, such as AIEE molecules. In addition, the relative quantum yields of ABPX in solution could not be determined because of the lack of a standard compound. The use of the surface photometric method allows development of an apparatus for the measurement of the absolute fluorescence quantum yields of high-concentration solutions.
The emission spectra are shown in (a) and (b) of FIG. 13. The emission could be observed when 30% volume fraction of water was added. The emission was enhanced when 50% to 90% volume fraction of water was added. Absorption measurements were similarly carried out in water/THF mixtures (containing 1% TFA). As the water fraction increased, the sharp aggregate spectra appearing at approximately 548 and 600 nm grew, as shown in (c) of FIG. 13. From 30% volume fraction of water addition, level-off tails were seen, which were attributed to Mie scattering caused by nanosized particles.
In order to check whether or not restriction of […] rotation (RIR) is involved in AIEE of ABPX01^+, viscochromism and thermochromism of the ABPX01^+ emission were examined. RIR was affected by the viscosity and temperature of the solvent. […] ABPX01^+ inhibited intramolecular rotation and induced AIEE at high viscosity and low temperature.

Data set [4] can be described thus: Particle size of aggregates by dynamic laser scattering (DLS). To be noted: 500 μM, 90% water/THF (1% TFA), 25° C. The protocol: as §1
With the use of dynamic laser scattering (DLS), the particle size of ABPX01^+ was examined in 90% water/THF mixtures (containing 1% TFA) at 25° C. […] As illustrated in (b) of FIG. 14, the particle size of ABPX01^+ aggregates was 500 nm immediately after the preparation of ABPX01^+. The ABPX01^+ aggregates then grew to a size of more than 1200 nm after 30 min. The particle size of ABPX01^+ in methanol and chloroform (respectively, containing 1% TFA) could not be calculated because the fluctuation of the scattered photons was not sufficiently observed owing to the subnanometer size.

This note sets out measurements from patent publication US8134017B1, “Compound and use thereof” (Riken, priority 2010, dated 2012).

Where “and” joins values, the source holds several entries; their conditions need not be identical. Equal values may be shown once.

For the substance “3′,3″-Bis (oxospriroisobenzofuran)-3,7-bis(diethylamino)benzopyranoxanthene [ABPX01]”, in data set [1] (THF), the “solubility in THF” value is reported as “easily dissolved”. Moreover, the “solubility in organic solvents” value in data set [1] (chloroform, methanol, acetone, THF, ethanol) is “easy to dissolve”. The solubility in water entry in data set [1] is reported as “not easy to dissolve”; in data set [1] (listed as ABPX01^+), “not in water”. Moreover, the absorbance peaks in data set [2] is 490 nm and 540 nm. Further, the AIEE entry in data set [3] (500 μM in 1% TFA/chloroform, methanol, ethanol or acetone) is “exhibited AIEE”. For the same substance, the “emission in THF” value in data set [3] (500 μM in THF) was “nonemissive”. Moreover, the “volume fraction of water at which emission could be observed” value in data set [3] (500 μM, water/THF mixtures) is recorded as 30%. The “emission intensity with increasing concentration” value in data set [3] (5, 50, 500 μM in 1% TFA/methanol, excitation 365 nm) is reported as “increased”. For the same substance, the “emission with increasing solvent viscosity or decreasing temperature” value in data set [3] (glycerol/methanol viscosity increased or methanol temperature decreased) is listed as “increased”. In addition, the “particle size of aggregates” value is listed as “more than 1200 nm” in data set [4] (after 30 min) and 500 nm in data set [4] (immediately after preparation).
